Tests used:
[1] = test system: remnant lipoprotein production in plasma of healthy subject; experiment: In vitro effect on remnant lipoprotein production in plasma (RLP-cholesterol JIMRO II); type: biochemical, human; details: 37° C.
Description: Compound A, Compound B, Compound C and Compound D were previously dissolved in dimethyl sulfoxide (DMSO). Plasma (200 μL) of healthy subject, and a solution (2 μL) of each compound in DMSO or DMSO (2 μL) were added into a microtube. On the other hand, a monoclonal antibody against human CETP was diluted with physiological saline and added into a microtube together with plasma (190 μL) of healthy subject and a diluted solution (10 μL) of the monoclonal antibody or physiological saline (10 μL). […] After ice-cooling, the cholesterol amount in the remnant fraction was measured using “RLP-cholesterol “JIMRO II”” (manufactured by Japan Immunoresearch Laboratories Co., Ltd.). The difference in the measured values from incubation of solvent alone at 4° C. and 37° C., namely, an increase in the remnant cholesterol was taken as a 100% production amount of remnant lipoprotein, and the percent of decrease in the measured values of incubation at 37° C. with the addition of each compound or the antibody was taken as percent inhibition of remnant lipoprotein production.

[2] = test system: cholesteryl ester transfer from donor lipoprotein to remnant lipoprotein; experiment: Cholesteryl ester transfer from donor lipoprotein ([3H]CE-HDL3) to remnant lipoprotein fraction in plasma; type: biochemical, human; details: [3H]CE-HDL3-containing plasma, 37° C.
Description: (§1) Potassium bromide (KBr) was added to plasma (40 mL) of healthy subject and the mixture was adjusted to have a specific density d=1.125 g/mL. The mixture was subjected to density gradient centrifugation (227,000×g, 4° C., 17 hr) and a fraction showing a specific density of d>1.125 g/mL (HDL3 fraction) was harvested. The obtained fraction was dialyzed against PBS solution [10 mmol/L Na2HPO4; 10 mmol/L NaH2PO4; 0.15 mol/L NaCl; 1 mmol/L EDTA (pH 7.4)]. Then, tritium-labeled cholesterol (37 MBq) was dissolved in 95% ethanol, gradually added to the above-mentioned HDL3 fraction with stirring and incubated at 37° C. for 18 hr. [By this operation, tritium-labeled cholesterol was esterified by the action of lecithin cholesterol acyl transferase (LCAT) present on the HDL3 surface and taken up into HDL3 as tritium-labeled cholesteryl ester ([^3H]CE)]. After incubation, KBr was added, the mixture was adjusted to have a specific density d=1.21 g/mL, subjected to density gradient centrifugation (227,000×g, 4° C., 17 hr) and a fraction of specific density […] was harvested. The obtained fraction was dialyzed against the aforementioned PBS solution to give HDL3 incorporating [^3H]CE ([^3H]CE-HDL3, specific density: 1.125<d<1.21, specific activity: 22,000-33,000 dpm/μL), which was used as a donor lipoprotein.
The donor lipoprotein obtained above was added to the plasma of healthy subject to prepare a [^3H]CE-HDL3-containing plasma (2,000-4,000 dpm/μL). Compound A, Compound B, Compound C and Compound D were dissolved in dimethyl sulfoxide (DMSO). A solution of each compound in DMSO (1 μL) or DMSO (1 μL), and the [^3H]CE-HDL3-containing plasma (100 μL) were added into a microtube. On the other hand, the monoclonal antibody was diluted with physiological saline and added into a microtube together with a diluted solution (5 μL) of the monoclonal antibody or physiological saline (5 μL), and [^3H]CE-HDL3 containing plasma (95 μL). […] After ice-cooling, a remnant fraction was harvested using “RLP-cholesterol “JIMRO II”” (manufactured by Japan Immunoresearch Laboratories Co., Ltd.), and the radioactivity in the fraction was measured with a liquid scintillation counter. The difference in the measured values from incubation of solvent alone at 4° C. and 37° C. was taken as a 100% cholesteryl ester transfer activity, and the percent of decrease in the measured values of incubation at 37° C. with the addition of each compound or the antibody was taken as percent inhibition of cholesteryl ester transfer.

[3] = target: T1, CETP (Homo sapiens, UniProt P11597); experiment: CETP activity in [3H]CE-HDL3-containing plasma (radioactivity in HDL fraction); type: biochemical; details: 37° C.
T1 construct: added to the plasma of healthy subject to prepare a [^3H]CE-HDL3-containing plasma; from tissue; host or cells: plasma of healthy subject
T1 sequence (P11597 18-493): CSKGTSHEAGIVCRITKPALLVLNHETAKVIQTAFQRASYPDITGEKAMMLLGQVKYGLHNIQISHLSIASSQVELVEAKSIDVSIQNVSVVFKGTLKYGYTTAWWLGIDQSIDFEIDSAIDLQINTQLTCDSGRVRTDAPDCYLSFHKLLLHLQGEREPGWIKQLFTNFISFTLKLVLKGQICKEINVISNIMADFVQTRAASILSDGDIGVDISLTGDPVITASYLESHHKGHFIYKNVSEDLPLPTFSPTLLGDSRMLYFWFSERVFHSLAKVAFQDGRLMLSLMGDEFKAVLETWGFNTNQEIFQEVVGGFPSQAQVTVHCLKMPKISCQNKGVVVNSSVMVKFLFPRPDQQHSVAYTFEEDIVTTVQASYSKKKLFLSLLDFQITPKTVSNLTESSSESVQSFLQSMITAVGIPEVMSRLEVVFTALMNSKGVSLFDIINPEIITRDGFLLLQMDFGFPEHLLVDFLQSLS
Description: as §1
The donor lipoprotein obtained above was added to the plasma of healthy subject to prepare a [^3H]CE-HDL3-containing plasma (2,000-4,000 dpm/μL). […] A solution of each compound in DMSO (1 μL) or DMSO (1 μL), and the [^3H]CE-HDL3-containing plasma (100 μL) were added into a microtube. On the other hand, the monoclonal antibody was diluted with physiological saline and added into a microtube together with a diluted solution (5 μL) of the monoclonal antibody or physiological saline (5 μL), and [^3H]CE-HDL3 containing plasma (95 μL). […] After ice-cooling, a remnant fraction was harvested using “RLP-cholesterol “JIMRO II”” (manufactured by Japan Immunoresearch Laboratories Co., Ltd.), and the radioactivity in the fraction was measured with a liquid scintillation counter. The difference in the measured values from incubation of solvent alone at 4° C. and 37° C. was taken as a 100% cholesteryl ester transfer activity, and the percent of decrease in the measured values of incubation at 37° C. with the addition of each compound or the antibody was taken as percent inhibition of cholesteryl ester transfer.
The CETP activity was measured according to the method shown below using a part of the same plasma after incubation. After ice-cooling, plasma (80 μL) was separated and a TBS solution [80 μL, 20 mmol/L Tris; 0.15 mol/L NaCl (pH 7.4)] containing 50 mmol/L magnesium chloride and 0.1% dextran sulfate was added to each microtube and thoroughly stirred. After standing at 4° C. for 30 min, the mixture was centrifuged (10,000×g, 4° C., 10 min.), and the radioactivity in the obtained supernatant (HDL fraction) was measured with a scintillation counter. The difference in the measured values from incubation of solvent alone at 4° C. and 37° C. was taken as a 100% CETP activity, and the percent of decrease in the measured values of incubation at 37° C. with the addition of each compound or the antibody was taken as percent inhibition of CETP activity. The above results are shown in the following.

Compound | Inhibition (%) of remnant lipoprotein production ([1]; 0.1 μM, 4 hr) [%] | Inhibition (%) of remnant lipoprotein production ([1]; 0.3 μM, 4 hr) [%] | Inhibition (%) of remnant lipoprotein production ([1]; 1 μM, 4 hr) [%] | Inhibition (%) of cholesteryl ester transfer to remnant fraction ([2]; 0.1 μM, 4 hr) [%] | Inhibition (%) of cholesteryl ester transfer to remnant fraction ([2]; 0.3 μM, 4 hr) [%] | Inhibition (%) of cholesteryl ester transfer to remnant fraction ([2]; 1 μM, 4 hr) [%] | Inhibition (%) of remnant lipoprotein production ([1]; 0.01 μM, 4 hr) [%] | Inhibition (%) of remnant lipoprotein production ([1]; 0.03 μM, 4 hr) [%] | Inhibition (%) of cholesteryl ester transfer to remnant fraction ([2]; 0.01 μM, 4 hr) [%] | Inhibition (%) of cholesteryl ester transfer to remnant fraction ([2]; 0.03 μM, 4 hr) [%] | also measured
CCN(CC1CCCC1)c1cc2c(cc1CN(Cc1cc(C#N)cc(C(F)(F)F)c1)C(=O)OC)CCC2 [Compound C, methyl (3-cyano-5-trifluoromethylbenzyl)-[6-(N-cyclopentylmethyl-N-ethylamino)indan-5-ylmethyl]-carbamate] | 21 | 34 | 41 | −25 | 9 | 35 |  |  |  |  | Inhibition (%) of remnant lipoprotein production ([1]; 3 μM, 4 hr): 93%; Inhibition (%) of cholesteryl ester transfer to remnant fraction ([2]; 3 μM, 4 hr): 92%; inhibition at 0.1 µM ([3]; 0.1 μM, 4 hr): 6%; inhibition at 0.3 µM ([3]; 0.3 μM, 4 hr): 12%; inhibition at 1 µM ([3]; 1 μM, 4 hr): 31%; inhibition at 3 µM ([3]; 3 μM, 4 hr): 57%
CCOC(=O)N1c2ccc(C(F)(F)F)cc2[C@@H](N(Cc2cc(C(F)(F)F)cc(C(F)(F)F)c2)C(=O)OC)C[C@H]1CC [Compound D, ethyl (2R,4S)-4-[[3,5-bis(trifluoromethyl)benzyl](methoxycarbonyl)amino]-2-ethyl-6-(trifluoromethyl)-3,4-dihydroquinoline-1(2H)-carboxylic acid ester] | 44 | 59 | 62 | 54 | 78 | 94 | 38 | 32 | 12 | 28 | 
CCC(CC)CC1(C(=O)Nc2ccccc2SC(=O)C(C)C)CCCCC1 [Compound A, S-{2-([[1-(2-ethylbutyl)cyclohexyl]carbonyl]amino)phenyl}2-methylpropanethioate] |  |  |  |  |  |  |  |  |  |  | Inhibition (%) of remnant lipoprotein production ([1]; 3 μM, 6 hr): 25%; Inhibition (%) of remnant lipoprotein production ([1]; 10 μM, 6 hr): 54%; Inhibition (%) of remnant lipoprotein production ([1]; 30 μM, 6 hr): 77%; Inhibition (%) of cholesteryl ester transfer to remnant fraction ([2]; 3 μM, 6 hr): 21%; Inhibition (%) of cholesteryl ester transfer to remnant fraction ([2]; 10 μM, 6 hr): 29%; Inhibition (%) of cholesteryl ester transfer to remnant fraction ([2]; 30 μM, 6 hr): 92%; Inhibition (%) of CETP activity ([3]; 3 μM, 6 hr): 3%; Inhibition (%) of CETP activity ([3]; 10 μM, 6 hr): 34%; Inhibition (%) of CETP activity ([3]; 30 μM, 6 hr): 75%
CCN(C[C@H]1CC[C@H](CC(=O)O)CC1)c1cc(C)c(C(F)(F)F)cc1CN(Cc1cc(C(F)(F)F)cc(C(F)(F)F)c1)c1nnn(C)n1.CS(=O)(=O)O [Compound B, trans-(4-{[N-(2-{[N′-[3,5-bis(trifluoromethyl)benzyl]-N′-(2-methyl-2H-tetrazol-5-yl)amino]methyl}-5-methyl-4-trifluoromethylphenyl)-N-ethylamino]methyl}cyclohexyl)acetic acid methanesulfonate] | 42 | 52 | 84 | 55 | 89 | 100 | 29 | 36 | 15 | 26 | Inhibition (%) of CETP activity ([3]; 0.01 μM, 4 hr): 10%; Inhibition (%) of CETP activity ([3]; 0.03 μM, 4 hr): 25%; Inhibition (%) of CETP activity ([3]; 0.1 μM, 4 hr): 53%; Inhibition (%) of CETP activity ([3]; 0.3 μM, 4 hr): 74%; Inhibition (%) of CETP activity ([3]; 1 μM, 4 hr): 86%

Reference: patent US20140364493A1, “METHOD OF INHIBITING REMNANT LIPOPROTEIN PRODUCTION” (Japan Tobacco Inc., priority 2003, published 2014)
